Assay results taken from patent US6583090B1, “Hetaryl-substituted benzyl phenyl ethers, method for the production thereof, and their use for combating harmful fungi and animal pests” (priority 1998, dated 2003).

Test system: Puccinia recondita
Experiment: Curative activity against Puccinia recondita on wheat (leaf rust of wheat)
Format: in vivo, Puccinia recondita on wheat c.v. Frühgold
Details: 16 ppm, sprayed the day after infection, 7 days in greenhouse, untreated plants 80% infection
Method: The active ingredients, separately or together, were prepared as a 10% strength emulsion in a mixture of 70% by weight of cyclohexanone, 20% by weight of Nekanil® LN (Lutensol® AP6, wetting agent having emulsifying and dispersant action based on ethoxylated alkylphenols) and 10% by weight of Wettol® EM (nonionic emulsifier based on ethoxylated castor oil) and diluted with water to the desired concentration.
Leaves of potted wheat seedlings c.v. “Frühgold” were dusted with leaf rust spores (Puccinia recondite). The pots were then placed for 24 hours into a chamber with high atmospheric humidity (90 to 95%) at 20 to 25° C. During this time, the spores germinated, and the germinal tubes penetrated the leaf tissue. The next day, the infected plants were sprayed to runoff point with an aqueous spray liquor which had been prepared using a stock solution of 10% of active ingredient, 63% of cyclohexanone and 27% of emulsifier. After the spray coating had dried on, the test plants were cultivated for 7 days in a greenhouse at from 20 to 22° C. and a relative atmospheric humidity of 65 to 70%. The extent of rust development on the leaves was then determined.

Row | Compound | % infection (rust development on the leaves)
1 | CNC(=O)C(=NOC)c1ccccc1COc1ccc(-n2nc(C)cc2C)cc1Cl [I-11, N-methyl-2-{2-chloro-[4-(3,5-dimethyl)pyrazol-1-yl]phenoxymethylene}-phenylglyoxamide O-methyloxime] | no infection
2 | CON=C(C(=O)OC)c1ccccc1COc1ccc(-n2nc(C)cc2C)cc1Cl [I-12, methyl 2-{2-chloro-[4-(3,5-dimethyl)-pyrazol-1-yl]phenoxymethylene}phenylglyoxylate O-methyloxime] | no infection
